{"source": "ChEMBL document CHEMBL5543173", "about": "“Discovery of a New Anti-Inflammatory Agent from Anemoside B4 Derivatives and Its Therapeutic Effect on Colitis by Targeting Pyruvate Carboxylase” (J Med Chem, 2024)", "key": {"[1]": {"tested_on": "THP-1", "assay": "cells", "conditions": "Homo sapiens, THP-1, 24 h", "description": "Cytotoxicity against human THP-1 cells assessed as inhibition of cell viability incubated for 24 hrs by CCK8 assay"}, "[2]": {"tested_on": "THP-1", "assay": "Anti-inflammatory activity in LPS-treated human THP-1 cells assessed as decrease in phosphorylated I-kappaB-alpha level at 10 uM pretreated for 1 hr followed by LPS treatment for 6 hrs by Western blot analysis", "assay_type": "functional, cell-based", "conditions": "time 7.0 hrs"}, "[3]": {"tested_on": "Mus musculus", "assay": "Anti-colitis activity in DSS-induced colitis mouse model at 20 to 40 mg/kg", "assay_type": "functional, organism-based", "conditions": "dose 20-40 mg/kg"}, "[4]": {"target": "T1, Pyruvate carboxylase, mitochondrial (Homo sapiens, UniProt P11498)", "T1 sequence (P11498 whole entry)": "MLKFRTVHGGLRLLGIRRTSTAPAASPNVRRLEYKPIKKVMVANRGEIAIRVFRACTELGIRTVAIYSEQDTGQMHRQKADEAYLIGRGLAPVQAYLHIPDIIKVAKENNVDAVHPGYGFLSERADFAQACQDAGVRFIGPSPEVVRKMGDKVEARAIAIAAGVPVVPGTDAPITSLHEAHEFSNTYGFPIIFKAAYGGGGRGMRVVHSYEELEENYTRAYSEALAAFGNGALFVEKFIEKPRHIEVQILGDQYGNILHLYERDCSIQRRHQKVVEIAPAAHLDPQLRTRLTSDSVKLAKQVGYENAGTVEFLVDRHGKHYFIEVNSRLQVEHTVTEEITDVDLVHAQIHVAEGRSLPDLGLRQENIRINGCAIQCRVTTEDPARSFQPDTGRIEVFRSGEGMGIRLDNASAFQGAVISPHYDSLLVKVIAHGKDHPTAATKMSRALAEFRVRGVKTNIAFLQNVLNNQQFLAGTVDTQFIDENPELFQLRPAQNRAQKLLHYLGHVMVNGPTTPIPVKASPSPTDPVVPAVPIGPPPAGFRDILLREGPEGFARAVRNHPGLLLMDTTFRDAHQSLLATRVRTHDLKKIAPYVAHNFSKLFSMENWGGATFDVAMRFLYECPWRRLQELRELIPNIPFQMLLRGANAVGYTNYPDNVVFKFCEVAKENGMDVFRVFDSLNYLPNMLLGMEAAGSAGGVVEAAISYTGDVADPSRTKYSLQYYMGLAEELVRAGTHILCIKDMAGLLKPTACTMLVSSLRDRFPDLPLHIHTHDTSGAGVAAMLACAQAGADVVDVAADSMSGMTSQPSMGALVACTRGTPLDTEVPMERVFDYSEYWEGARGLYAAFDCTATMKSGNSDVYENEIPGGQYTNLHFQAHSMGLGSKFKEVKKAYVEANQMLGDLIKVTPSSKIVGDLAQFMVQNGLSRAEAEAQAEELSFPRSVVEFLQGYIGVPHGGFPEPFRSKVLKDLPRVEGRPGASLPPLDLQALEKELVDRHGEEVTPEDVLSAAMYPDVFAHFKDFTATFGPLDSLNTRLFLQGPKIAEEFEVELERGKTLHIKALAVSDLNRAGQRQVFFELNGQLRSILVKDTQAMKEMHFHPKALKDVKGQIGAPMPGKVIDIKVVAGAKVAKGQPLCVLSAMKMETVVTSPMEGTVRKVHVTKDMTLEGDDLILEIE", "assay": "Inhibition of pyruvate carboxylase (unknown origin) by NADH-malate dehydrogenase based spectrophotometry"}, "[5]": {"tested_on": "Mus musculus", "assay": "Anti-colitis activity in ICR mouse model assessed as decrease in DSS-induced body weight loss at 400 mg/kg, IG treated for 9 days consecutively", "assay_type": "functional, organism-based", "conditions": "time 9.0 day"}, "[6]": {"tested_on": "Mus musculus", "assay": "Anti-colitis activity in ICR mouse model assessed as reversal of DSS-induced spleen weight at 400 mg/kg, IG treated for 9 days consecutively", "assay_type": "functional, organism-based", "conditions": "time 9.0 day"}, "[7]": {"tested_on": "Mus musculus", "assay": "Anti-colitis activity in ICR mouse model assessed as reversal of DSS-induced colon shortening administered intragastrically for 9 days consecutively", "assay_type": "functional, organism-based", "conditions": "route ig, time 9.0 day"}, "[8]": {"tested_on": "Mus musculus", "assay": "Anti-colitis activity in ICR mouse model assessed as reversal of DSS-induced splenomegaly at 400 mg/kg, IG treated for 9 days consecutively", "assay_type": "functional, organism-based", "conditions": "time 9.0 day"}, "[9]": {"tested_on": "Mus musculus", "assay": "Anti-colitis activity in ICR mouse model of DSS-induced colitis assessed as decrease in DAI score at 400 mg/kg, IG treated for 9 days consecutively", "assay_type": "functional, organism-based", "conditions": "time 9.0 day"}, "[10]": {"assay": "MRT (0 to t) in colon of ICR mouse at 15 mg/kg, IG measured for 12 hrs by LC-MS/MS analysis", "assay_type": "ADME, organism-based", "conditions": "po"}, "[11]": {"assay": "Cmax in ICR mouse at 15 mg/kg, IG measured for 12 hrs by LC-MS/MS analysis", "assay_type": "ADME, organism-based", "conditions": "in vivo, po"}, "[12]": {"assay": "MRT (0 to t) in ICR mouse at 15 mg/kg, IG measured for 12 hrs by LC-MS/MS analysis", "assay_type": "ADME, organism-based", "conditions": "in vivo, po"}, "[13]": {"assay": "Tmax in colon of ICR mouse at 15 mg/kg, IG measured for 12 hrs by LC-MS/MS analysis", "assay_type": "ADME, organism-based", "conditions": "po"}, "[14]": {"assay": "Half life in colon of ICR mouse at 15 mg/kg, IG measured for 12 hrs by LC-MS/MS analysis", "assay_type": "ADME, organism-based", "conditions": "po"}, "[15]": {"assay": "Half life in ICR mouse at 15 mg/kg, IG measured for 12 hrs by LC-MS/MS analysis", "assay_type": "ADME, organism-based", "conditions": "in vivo, po, 15 mg/kg, 12 h"}, "[16]": {"assay": "AUC (0 to t) in colon of ICR mouse at 15 mg/kg, IG measured for 12 hrs by LC-MS/MS analysis", "assay_type": "ADME, organism-based", "conditions": "po"}, "[17]": {"assay": "Tmax in ICR mouse at 15 mg/kg, IG measured for 12 hrs by LC-MS/MS analysis", "assay_type": "ADME, organism-based", "conditions": "in vivo, po"}, "[18]": {"assay": "Cmax in colon of ICR mouse at 15 mg/kg, IG measured for 12 hrs by LC-MS/MS analysis", "assay_type": "ADME, organism-based", "conditions": "po"}, "[19]": {"assay": "AUC (0 to t) in ICR mouse at 15 mg/kg, IG measured for 12 hrs by LC-MS/MS analysis", "assay_type": "ADME, organism-based", "conditions": "in vivo, po"}}, "note": "Calls of active or inactive are those of the source. The rule behind the calls is not given here."}
{"smiles": "C=C(C)[C@@H]1CC[C@]2(C(=O)NCCCNC(=O)OC(C)(C)C)CC[C@]3(C)[C@H](CC[C@@H]4[C@@]5(C)CC[C@H](O[C@@H]6OC[C@H](O)[C@H](O)[C@H]6O[C@@H]6O[C@@H](C)[C@H](O)[C@@H](O)[C@H]6O)[C@@](C)(CO)[C@@H]5CC[C@]43C)[C@@H]12", "values": [{"measurement": "IC50", "setting": "[1]", "result": "≥ 80", "unit": "µM"}, {"measurement": "Activity", "setting": "[2]", "result": "Active"}]}
{"smiles": "C=C(C)[C@@H]1CC[C@]2(C(=O)O)CC[C@]3(C)[C@H](CC[C@@H]4[C@@]5(C)CC[C@H](O[C@@H]6OC[C@H](O)[C@H](O)[C@H]6O[C@@H]6O[C@@H](C)[C@H](O)[C@@H](O)[C@H]6O)[C@@](C)(CO)[C@@H]5CC[C@]43C)[C@@H]12", "values": [{"measurement": "IC50", "setting": "[1]", "result": "≥ 80", "unit": "µM"}, {"measurement": "Activity", "setting": "[3]", "result": "inactive"}, {"measurement": "IC50", "setting": "[4]", "result": "> 10", "unit": "µM"}]}
{"smiles": "Nc1ccc(O)c(C(=O)O)c1", "values": [{"measurement": "Activity", "setting": "[5]", "result": "Active"}, {"measurement": "Activity", "setting": "[6]", "result": "Active"}, {"measurement": "Activity", "setting": "[7]", "result": "Dose-Dependent Effect"}, {"measurement": "Activity", "setting": "[8]", "result": "Active"}, {"measurement": "Activity", "setting": "[9]", "result": "Active"}]}
{"smiles": "C=C(C)[C@@H]1CC[C@]2(C(=O)O[C@@H]3O[C@H](CO[C@@H]4O[C@H](CO)[C@@H](O[C@@H]5O[C@@H](C)[C@H](O)[C@@H](O)[C@H]5O)[C@H](O)[C@H]4O)[C@@H](O)[C@H](O)[C@H]3O)CC[C@]3(C)[C@H](CC[C@@H]4[C@@]5(C)CC[C@H](O[C@@H]6OC[C@H](O)[C@H](O)[C@H]6O[C@@H]6O[C@@H](C)[C@H](O)[C@@H](O)[C@H]6O)[C@@](C)(CO)[C@@H]5CC[C@]43C)[C@@H]12", "values": [{"measurement": "IC50", "setting": "[1]", "result": "≥ 80", "unit": "µM"}, {"measurement": "MRT last at 12 h", "setting": "[10]", "result": 4.38, "unit": "h"}, {"measurement": "Cmax", "setting": "[11]", "result": 0.58, "unit": "ng/mL"}, {"measurement": "MRT last at 12 h", "setting": "[12]", "result": 5.13, "unit": "h"}, {"measurement": "Tmax", "setting": "[13]", "result": 1.92, "unit": "h"}, {"measurement": "half-life", "setting": "[14]", "result": 4.65, "unit": "h"}, {"measurement": "t1/2", "setting": "[15]", "result": 4.74, "unit": "h"}, {"measurement": "AUC(0-t) at 12 h", "setting": "[16]", "result": 30.2, "unit": "ng·h/mL"}, {"measurement": "Tmax", "setting": "[17]", "result": 0.46, "unit": "h"}, {"measurement": "Cmax", "setting": "[18]", "result": 7.12, "unit": "ng/mL"}, {"measurement": "AUCt", "setting": "[19]", "result": 2.46, "unit": "ng·h/mL"}]}
{"smiles": "C=C(C)[C@@H]1CC[C@]2(C(=O)NC3CC3)CC[C@]3(C)[C@H](CC[C@@H]4[C@@]5(C)CC[C@H](O[C@@H]6OC[C@H](O)[C@H](O)[C@H]6O[C@@H]6O[C@@H](C)[C@H](O)[C@@H](O)[C@H]6O)[C@@](C)(CO)[C@@H]5CC[C@]43C)[C@@H]12", "values": [{"measurement": "IC50", "setting": "[1]", "result": "≥ 80", "unit": "µM"}, {"measurement": "IC50", "setting": "[4]", "result": "> 10", "unit": "µM"}]}
{"smiles": "C=C(C)[C@@H]1CC[C@]2(C(=O)NCCCN3CCCC3)CC[C@]3(C)[C@H](CC[C@@H]4[C@@]5(C)CC[C@H](O[C@@H]6OC[C@H](O)[C@H](O)[C@H]6O[C@@H]6O[C@@H](C)[C@H](O)[C@@H](O)[C@H]6O)[C@@](C)(CO)[C@@H]5CC[C@]43C)[C@@H]12", "values": [{"measurement": "IC50", "setting": "[1]", "result": "≥ 80", "unit": "µM"}, {"measurement": "IC50", "setting": "[4]", "result": "> 1", "unit": "µM"}]}
{"smiles": "C=C(C)[C@@H]1CC[C@]2(C(=O)OC)CC[C@]3(C)[C@H](CC[C@@H]4[C@@]5(C)CC[C@H](O[C@@H]6OC[C@H](O)[C@H](O)[C@H]6O[C@@H]6O[C@@H](C)[C@H](O)[C@@H](O)[C@H]6O)[C@@](C)(CO)[C@@H]5CC[C@]43C)[C@@H]12", "values": [{"measurement": "IC50", "setting": "[1]", "result": 70.8, "unit": "µM"}, {"measurement": "IC50", "setting": "[4]", "result": "> 10", "unit": "µM"}]}
{"smiles": "C=C(C)[C@@H]1CC[C@]2(C(=O)NCCCCCC(=O)NS(=O)(=O)c3ccc(-n4nc(C(F)(F)F)cc4-c4ccc(C)cc4)cc3)CC[C@]3(C)[C@H](CC[C@@H]4[C@@]5(C)CC[C@H](O[C@@H]6OC[C@H](O)[C@H](O)[C@H]6O[C@@H]6O[C@@H](C)[C@H](O)[C@@H](O)[C@H]6O)[C@@](C)(CO)[C@@H]5CC[C@]43C)[C@@H]12", "values": [{"measurement": "IC50", "setting": "[1]", "result": "≥ 80", "unit": "µM"}, {"measurement": "IC50", "setting": "[4]", "result": "> 10", "unit": "µM"}]}
{"smiles": "C=C(C)[C@@H]1CC[C@]2(C(=O)NC)CC[C@]3(C)[C@H](CC[C@@H]4[C@@]5(C)CC[C@H](O[C@@H]6OC[C@H](O)[C@H](O)[C@H]6O[C@@H]6O[C@@H](C)[C@H](O)[C@@H](O)[C@H]6O)[C@@](C)(CO)[C@@H]5CC[C@]43C)[C@@H]12", "values": [{"measurement": "IC50", "setting": "[1]", "result": "≥ 80", "unit": "µM"}, {"measurement": "IC50", "setting": "[4]", "result": "> 1", "unit": "µM"}]}
{"smiles": "C=C(C)[C@@H]1CC[C@]2(C(=O)NCCCC(=O)OCC)CC[C@]3(C)[C@H](CC[C@@H]4[C@@]5(C)CC[C@H](O[C@@H]6OC[C@H](O)[C@H](O)[C@H]6O[C@@H]6O[C@@H](C)[C@H](O)[C@@H](O)[C@H]6O)[C@@](C)(CO)[C@@H]5CC[C@]43C)[C@@H]12", "values": [{"measurement": "IC50", "setting": "[1]", "result": "≥ 80", "unit": "µM"}, {"measurement": "IC50", "setting": "[4]", "result": "> 1", "unit": "µM"}]}
